In US11554133B2, “Bile acid synthesis promoter, composition for promoting bile acid synthesis and food composition for promoting bile acid synthesis” (KRACIE HOLDINGS, LTD., priority 2017, dated 2023):

How the values were obtained:
bile acid in feces = assay: Measurement of the amount of bile acid in feces (UPLC-MS/MS) of db/db mice fed arctigenin diet; type: in vivo; settings: 0.2% arctigenin in purified diet for nine weeks, pooled feces at end of administration
Procedure: (§1) Using 5-week-old male db/db mice (BKS.Cg−+Leprdb/+Leprdb/Jcl, purchased from CLEA Japan, Inc.) that were leptin receptor-deficient model, the experiments were started after one-week preliminary rearing. The animals were reared under the environment of 23.0±5° C. of temperature, 50.0±10% of humidity and 12 hours of light-dark cycle. The animal experiments were approved by animal care and use committee of Keio University and carried out based on animal experiment rules of Keio University.
(§2) After preliminary rearing, mice were divided into two groups of (a) control group and (b) arctigenin administrated group (AG group) (each group n=8), and made AG group intake purified diet combined with arctigenin (>98.0%) 0.2% and purified diet (AIN-93G) for control group freely for nine weeks. After administration, 18-hour fasting was performed, and blood specimens were collected from abdominal vena cava under anesthesia, and the liver and the small intestine were sampled.
Feces were collected from the rearing cage of each group at the end of the administration period, and the amount of bile acid in feces was measured. 10 mg of dry powder of pooled feces was suspended in 0.2 mL of 90% ethanol and incubated at 65° C. for 1 hour, and the supernatant after centrifugation and the washing of the precipitates were collected together. […]

[1] = tested on: total cholesterol in the liver; assay: Measurement of total cholesterol in liver of db/db mice fed arctigenin diet; type: in vivo; settings: 0.2% arctigenin in purified diet for nine weeks, liver lipid extract
Procedure: Using 5-week-old male db/db mice (BKS.Cg−+Leprdb/+Leprdb/Jcl, purchased from CLEA Japan, Inc.) that were leptin receptor-deficient model, the experiments were started after one-week preliminary rearing. The animals were reared under the environment of 23.0±5° C. of temperature, 50.0±10% of humidity and 12 hours of light-dark cycle. The animal experiments were approved by animal care and use committee of Keio University and carried out based on animal experiment rules of Keio University. After preliminary rearing, mice were divided into two groups of (a) control group and (b) arctigenin administrated group (AG group) (each group n=8), and made AG group intake purified diet combined with arctigenin (>98.0%) 0.2% and purified diet (AIN-93G) for control group freely for nine weeks. After administration, 18-hour fasting was performed, and blood specimens were collected from abdominal vena cava under anesthesia, and the liver and the small intestine were sampled. Homogenate the liver obtained from each group and extracted total lipid using a lipid extraction kit (Lipid Extraction Kit (Chloroform-Free), Cell Biolabs, Inc.). A total cholesterol level was measured from lipid extract using cholesterol E-test Wako (Wako Pure Chemical Corporation). FIG. 2 is a graph showing the amount of total cholesterol in the liver (mg/dL) in control group and AG group. […]

Cyp8b1 of the liver = assay: Liver Cyp8b1 mRNA expression by qPCR; type: in vivo; settings: db/db mice, 0.2% arctigenin diet nine weeks, qPCR vs 18S rRNA, Student's t-test
Procedure: as §1, §2
(§3) After having performed extraction of total RNA from the obtained organs and cDNA synthesis on each group, the expression level of Cyp8b1, SHP, FXR and FGF4R of the liver which are the liver cholesterol metabolism-related genes and small intestinal FGF15 and SHP were compared by qPCR. As control, 18S rRNA was used. […]

SHP of the liver = assay: Liver SHP mRNA expression by qPCR; type: in vivo; settings: db/db mice, 0.2% arctigenin diet nine weeks, qPCR vs 18S rRNA, Student's t-test
Procedure: as §1, §2, §3

FXR of the liver = assay: Liver FXR mRNA expression by qPCR; type: in vivo; settings: db/db mice, 0.2% arctigenin diet nine weeks, qPCR vs 18S rRNA, Student's t-test
Procedure: as §1, §2, §3

FGF4R of the liver = assay: Liver FGF4R mRNA expression by qPCR; type: in vivo; settings: db/db mice, 0.2% arctigenin diet nine weeks, qPCR vs 18S rRNA, Student's t-test
Procedure: as §1, §2, §3

small intestinal FGF15 = assay: Small intestinal FGF15 mRNA expression by qPCR; type: in vivo; settings: db/db mice, 0.2% arctigenin diet nine weeks, qPCR vs 18S rRNA
Procedure: as §1, §2, §3

small intestinal SHP = assay: Small intestinal SHP mRNA expression by qPCR; type: in vivo; settings: db/db mice, 0.2% arctigenin diet nine weeks, qPCR vs 18S rRNA
Procedure: as §1, §2, §3

[2] = general statement, no test described; cited from earlier work

Structure (SMILES): COc1cc(C[C@H]2C(=O)OC[C@@H]2Cc2ccc(OC)c(OC)c2)ccc1O [arctigenin]
- amount of total bile acid in feces in comparison with control group (bile acid in feces): large amount
- amount of total cholesterol in the liver versus control group [1]: little amount
- relative mRNA expression level of Cyp8b1 of the liver in comparison with control group (Cyp8b1 of the liver): significantly high
- relative mRNA expression level of SHP of the liver in comparison with control group (SHP of the liver): significantly low
- relative mRNA expression level of FXR of the liver in comparison with control group (FXR of the liver): significantly low
- relative mRNA expression level of FGF4R of the liver in comparison with control group (FGF4R of the liver): significantly low
- relative mRNA expression level of small intestinal FGF15 in comparison with control group (small intestinal FGF15): low
- relative mRNA expression level of small intestinal SHP in comparison with control group (small intestinal SHP): low
- solubility in water [2]: water-insoluble
